Measurements as given in patent US20090143279A1 (priority 2007, published 2009).
Read-outs that look alike come from different tables or passages of the source.

Experiments:
OXPHOS gene expression = assay type: cell-based, mouse; settings: Conc 20 μM; for GE-HTS (composite Z-score): normalized score vs mock-treated (DMSO) wells
[1] = test system: cellular dehydrogenase activity; settings: Conc 20 μM; for MTT (composite Z-score): normalized score vs mock-treated (DMSO) wells
cytochrome c = assay type: cell-based, mouse; settings: Conc 20 μM; for cyt c (composite Z-score): normalized score vs mock-treated (DMSO) wells
C2C12 myotubes = settings: Conc 20 μM; for Viability (composite Z-score): normalized score vs mock-treated (DMSO) wells
mtOXPHOS transcripts = assay type: cell-based, mouse; settings: Conc 20 μM; for mitoOX (composite Z-score): normalized score vs mock-treated (DMSO) wells
[2] = test system: mitochondrial membrane potential; assay type: cell-based, mouse; settings: Conc 20 μM; for ΔΨm (composite Z-score): normalized score vs mock-treated (DMSO) wells
reactive oxygen species = assay type: cell-based, mouse; settings: Conc 20 μM; for ROS (composite Z-score): normalized score vs mock-treated (DMSO) wells
nuOXPHOS transcripts = assay type: cell-based, mouse; settings: Conc 20 μM; for nucOX (composite Z-score): normalized score vs mock-treated (DMSO) wells
[3] = composite Z-score vs mock-treated (DMSO) wells
[4] = normalized composite Z-score vs mock-treated (DMSO) wells
[5] = composite Z-score vs DMSO wells

Structure (SMILES): CCC(=O)OC1[C@@H]2CC3=C4CC(=O)O[C@@H](c5ccoc5)[C@]4(C)CCC3[C@@](C)(C2=O)[C@@H](CC(=O)OC)C1(C)C (stereo partly drawn) [khayasin C]
- GE-HTS (OXPHOS gene expression; [3]): 0.442
- MTT [1, 3]: −1.678
- cyt c (cytochrome c; [3]): −0.654
- Viability (C2C12 myotubes; [3]): −1.021
- mitoOX (mtOXPHOS transcripts; [3]): 1.232
- ΔΨm [2, 3]: −0.095
- ROS (reactive oxygen species; [3]): −0.078
- nucOX (nuOXPHOS transcripts; [3]): 0.033

Structure (SMILES): CCC(C)C(=O)OC1[C@@H]2CC3=C4CC(=O)O[C@@H](c5ccoc5)[C@]4(C)CCC3[C@@](C)(C2=O)[C@@H](CC(=O)OC)C1(C)C (stereo partly drawn) [khayasin]
- GE-HTS (OXPHOS gene expression; [3]): 0.671
- MTT [1, 3]: −0.812
- cyt c (cytochrome c; [3]): −0.281
- Viability (C2C12 myotubes; [3]): −0.077
- mitoOX (mtOXPHOS transcripts; [3]): 0.326
- ΔΨm [2, 3]: 0.007
- ROS (reactive oxygen species; [3]): 0.528
- nucOX (nuOXPHOS transcripts; [3]): 0.798

Structure (SMILES): CC(=O)O[C@H]1C[C@@H](OC(C)=O)C(C)(C)[C@@H]2C[C@@H](OC(C)=O)[C@]3(C)[C@H](CC[C@@]4(C)[C@H](c5ccoc5)OC(=O)[C@H]5O[C@@]534)[C@@]12C [khivorin]
- GE-HTS (OXPHOS gene expression; [3]): −0.144
- MTT [1, 3]: −1.421
- cyt c (cytochrome c; [3]): 0.229
- Viability (C2C12 myotubes; [3]): 0.807
- mitoOX (mtOXPHOS transcripts; [3]): −0.423
- ΔΨm [2, 3]: −0.145
- ROS (reactive oxygen species; [3]): 0.187
- nucOX (nuOXPHOS transcripts; [3]): −0.022

Structure (SMILES): OC[C@H]1O[C@@H](n2cnc3c(NCc4ccco4)ncnc32)[C@H](O)[C@@H]1O [kinetin riboside]
- GE-HTS (OXPHOS gene expression; composite Z-score vs DMSO): 0.882
- MTT ([1]; composite Z-score vs DMSO): −4.309
- cyt c (cytochrome c; composite Z-score vs DMSO): −2.612
- Viability (C2C12 myotubes; composite Z-score vs DMSO): −1.883
- mitoOX (mtOXPHOS transcripts; composite Z-score vs DMSO): 0.750
- ΔΨm ([2]; composite Z-score vs DMSO): −1.350
- ROS (reactive oxygen species; composite Z-score vs DMSO): −2.722
- nucOX (nuOXPHOS transcripts; composite Z-score vs DMSO): 0.853

Structure (SMILES): COc1ccc(-c2coc3cc(O)ccc3c2=O)c(OC)c1O [koparin 2′-methyl ether]
- GE-HTS (OXPHOS gene expression; composite Z-score vs DMSO): −1.151
- MTT ([1]; composite Z-score vs DMSO): −0.532
- cyt c (cytochrome c; composite Z-score vs DMSO): 0.007
- Viability (C2C12 myotubes; composite Z-score vs DMSO): 0.024
- mitoOX (mtOXPHOS transcripts; composite Z-score vs DMSO): −0.309
- ΔΨm ([2]; composite Z-score vs DMSO): −0.442
- ROS (reactive oxygen species; composite Z-score vs DMSO): 0.126
- nucOX (nuOXPHOS transcripts; composite Z-score vs DMSO): −1.461

Structure (SMILES): COc1c(O)cc2c(-c3ccccc3)cc(=O)oc2c1OC [kuhlmannin]
- GE-HTS (composite Z-score) (OXPHOS gene expression): 0.624
- MTT (composite Z-score) [1]: −0.487
- cyt c (composite Z-score) (cytochrome c): −0.170
- Viability (composite Z-score) (C2C12 myotubes): 0.333
- mitoOX (composite Z-score) (mtOXPHOS transcripts): 0.408
- ΔΨm (composite Z-score) [2]: 0.133
- ROS (composite Z-score) (reactive oxygen species): 0.443
- nucOX (composite Z-score) (nuOXPHOS transcripts): 0.646

Structure (SMILES): NCCC(=O)c1ccccc1N [kynuramine]
- GE-HTS (OXPHOS gene expression; [4]): 0.070
- MTT [1, 4]: −1.264
- cyt c (cytochrome c; [4]): 1.161
- Viability (C2C12 myotubes; [4]): 0.319
- mitoOX (mtOXPHOS transcripts; [4]): 0.045
- ΔΨm [2, 4]: −0.127
- ROS (reactive oxygen species; [4]): 1.180
- nucOX (nuOXPHOS transcripts; [4]): 0.093

Structure (SMILES): Nc1ccccc1C(=O)CC(N)C(=O)O (stereo not drawn) [kynurenine]
- GE-HTS (OXPHOS gene expression; [4]): −0.039
- MTT [1, 4]: −0.912
- cyt c (cytochrome c; [4]): 0.162
- Viability (C2C12 myotubes; [4]): −0.110
- mitoOX (mtOXPHOS transcripts; [4]): 0.069
- ΔΨm [2, 4]: −0.058
- ROS (reactive oxygen species; [4]): 1.941
- nucOX (nuOXPHOS transcripts; [4]): −0.088

Structure (SMILES): C[C@@H]1CC[C@H]2[C@](C)(CO)[C@@H](O)CC[C@]2(C)[C@@]12CC[C@@](CO)(CCO)O2 [lagochilin]
- GE-HTS (composite Z-score) (OXPHOS gene expression): 0.002
- MTT (composite Z-score) [1]: −0.238
- cyt c (composite Z-score) (cytochrome c): −0.862
- Viability (composite Z-score) (C2C12 myotubes): 0.043
- mitoOX (composite Z-score) (mtOXPHOS transcripts): 0.128
- ΔΨm (composite Z-score) [2]: 0.277
- ROS (composite Z-score) (reactive oxygen species): 0.962
- nucOX (composite Z-score) (nuOXPHOS transcripts): −0.036

Structure (SMILES): CC(=O)O[C@H]1C[C@H](O[C@H]2[C@@H](O)C[C@H](O[C@H]3[C@@H](O)C[C@H](O[C@H]4CC[C@@]5(C)[C@H](CC[C@@H]6[C@@H]5C[C@@H](O)[C@]5(C)[C@@H](C7=CC(=O)OC7)CC[C@]65O)C4)O[C@@H]3C)O[C@@H]2C)O[C@H](C)[C@H]1O[C@@H]1O[C@H](CO)[C@@H](O)[C@H](O)[C@H]1O [lanatoside C]
- GE-HTS (OXPHOS gene expression; [5]): −0.931
- MTT [1, 5]: −0.887
- cyt c (cytochrome c; [5]): 0.664
- Viability (C2C12 myotubes; [5]): −0.704
- mitoOX (mtOXPHOS transcripts; [5]): −0.935
- ΔΨm [2, 5]: −1.105
- ROS (reactive oxygen species; [5]): −0.033
- nucOX (nuOXPHOS transcripts; [5]): −0.844

Structure (SMILES): CC(C)=CCC1=C(O)C(=O)c2ccccc2C1=O [lapachol]
- GE-HTS (OXPHOS gene expression; [5]): −1.316
- MTT [1, 5]: −1.211
- cyt c (cytochrome c; [5]): 0.325
- Viability (C2C12 myotubes; [5]): −0.409
- mitoOX (mtOXPHOS transcripts; [5]): −1.077
- ΔΨm [2, 5]: 0.035
- ROS (reactive oxygen species; [5]): −0.544
- nucOX (nuOXPHOS transcripts; [5]): −1.308

Structure (SMILES): C=C[C@@](C)(O)CC[C@H]1C(=C)C[C@H](O)[C@H]2C(C)(C)CCC[C@]12C [larixol]
- GE-HTS (composite Z-score) (OXPHOS gene expression): −0.507
- MTT (composite Z-score) [1]: −0.221
- cyt c (composite Z-score) (cytochrome c): 0.944
- Viability (composite Z-score) (C2C12 myotubes): 0.085
- mitoOX (composite Z-score) (mtOXPHOS transcripts): −0.552
- ΔΨm (composite Z-score) [2]: −0.141
- ROS (composite Z-score) (reactive oxygen species): 1.068
- nucOX (composite Z-score) (nuOXPHOS transcripts): −0.466
